In ChEMBL document CHEMBL1201862, “PubChem BioAssay data set” (2004):
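96-well plates; 48 h exposure; 5 concentrations. Endpoints by linear interpolation between flanking doses. Not reached: highest tested concentration assigned. GI50: concentration for 50% inhibition of growth.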 Active and inactive are the calls of the source. No stated cut-off is given here; in the data, active = GI50 up to about 1.1 µM and inactive = higher.

How the values were obtained:
Assay in all cases: NCI-60 cell line screen, 48 h
OVCAR-4 = test system: OVCAR-4
OVCAR-8 = test system: OVCAR-8
COLO 205 = test system: COLO 205
OVCAR-5 = test system: OVCAR-5
NCI-H23 = test system: NCI-H23
UACC-257 = test system: UACC-257
KM12 = test system: KM12
HT-29 = test system: HT-29
T47D = test system: T47D
M14 = test system: M14
MDA-N = test system: MDA-N
SN12C = test system: SN12C
SNB-75 = test system: SNB-75
SK-MEL-2 = test system: SK-MEL-2
CAKI-1 = test system: CAKI-1
HOP-62 = test system: HOP-62
EKVX = test system: EKVX
HCC 2998 = test system: HCC 2998
TK-10 = test system: TK-10

Measured: GI50

CCCCCCc1ccc(CCCCCCCC(=O)O)o1
inactive: OVCAR-4 > 100 µM | OVCAR-8 > 100 µM | COLO 205 > 100 µM | OVCAR-5 > 100 µM | NCI-H23 > 100 µM | UACC-257 > 100 µM | KM12 70.8 µM | HT-29 46.2 µM | T47D > 100 µM | M14 > 100 µM | MDA-N > 100 µM | SN12C > 100 µM | SNB-75 55.7 µM | SK-MEL-2 > 100 µM | CAKI-1 > 100 µM | HOP-62 > 100 µM | EKVX > 100 µM | HCC 2998 > 100 µM

O=c1c2cc(I)ccc2nc(Sc2ccc([N+](=O)[O-])cc2[N+](=O)[O-])n1Cc1ccccc1
inactive: OVCAR-4 2.49 µM | OVCAR-8 1.6 µM | COLO 205 5.14 µM | OVCAR-5 9.02 µM | NCI-H23 3.02 µM | UACC-257 4.65 µM | KM12 3.32 µM | HT-29 3.24 µM | T47D 1.71 µM | M14 1.94 µM | MDA-N 1.52 µM | SN12C 1.46 µM | SNB-75 3.91 µM | SK-MEL-2 1.85 µM | CAKI-1 2.64 µM | HOP-62 2.93 µM | EKVX 3.55 µM | TK-10 7.59 µM | HCC 2998 2.92 µM

CC(C)(C)OC(=O)NCCCCC(N)NC(=O)c1ccccc1 (stereo not given)
inactive: OVCAR-4 > 100 µM | OVCAR-8 > 100 µM | COLO 205 > 100 µM | OVCAR-5 > 100 µM | NCI-H23 > 100 µM | UACC-257 > 100 µM | KM12 > 100 µM | HT-29 > 100 µM | T47D > 100 µM | M14 > 100 µM | MDA-N > 100 µM | SN12C > 100 µM | SNB-75 > 100 µM | SK-MEL-2 > 100 µM | CAKI-1 > 100 µM | HOP-62 > 100 µM | EKVX > 100 µM | TK-10 > 100 µM | HCC 2998 > 100 µM

COc1cc2c(cc1OC)C(C1CC1)ON(C)CC2 (stereo not given)
inactive: OVCAR-4 > 100 µM | OVCAR-8 > 100 µM | COLO 205 > 100 µM | OVCAR-5 > 100 µM | NCI-H23 > 100 µM | UACC-257 > 100 µM | KM12 > 100 µM | HT-29 > 100 µM | T47D > 100 µM | M14 > 100 µM | MDA-N > 100 µM | SN12C > 100 µM | SNB-75 > 100 µM | SK-MEL-2 > 100 µM | CAKI-1 > 100 µM | HOP-62 > 100 µM | EKVX 58.7 µM | TK-10 > 100 µM | HCC 2998 > 100 µM

CN(CCNC(=O)c1c[nH]c2c1ccc1ccccc12)CCNC(=O)c1c[nH]c2c1ccc1ccccc12
inactive: OVCAR-4 3.54 µM | OVCAR-8 1.93 µM | COLO 205 1.61 µM | OVCAR-5 4.74 µM | NCI-H23 4.39 µM | UACC-257 1.79 µM | KM12 1.66 µM | HT-29 1.87 µM | T47D 1.14 µM | M14 1.84 µM | MDA-N 2.31 µM | SN12C 3.39 µM | SNB-75 1.52 µM | SK-MEL-2 1.99 µM | CAKI-1 2.56 µM | HOP-62 2.36 µM | EKVX 3.62 µM | TK-10 3.21 µM | HCC 2998 1.41 µM

Cc1nn(-c2ccccc2)c(C)c1/C=N/NC(=O)c1sc(=S)n(-c2ccc(Cl)cc2)c1N
inactive: OVCAR-4 3.94 µM | OVCAR-8 32.3 µM | COLO 205 4.69 µM | OVCAR-5 6.44 µM | NCI-H23 18.9 µM | UACC-257 14.4 µM | KM12 8.3 µM | HT-29 5.05 µM | T47D 16.5 µM | M14 5.24 µM | MDA-N 11.5 µM | SN12C 12.2 µM | SNB-75 1.48 µM | SK-MEL-2 17.3 µM | CAKI-1 2.76 µM | HOP-62 6.44 µM | EKVX 3.55 µM | TK-10 1.87 µM | HCC 2998 18.8 µM

CCN(CC)CCNC(=O)c1ccc(I)cc1
inactive: OVCAR-4 > 100 µM | OVCAR-8 > 100 µM | COLO 205 > 100 µM | OVCAR-5 > 100 µM | NCI-H23 > 100 µM | UACC-257 > 100 µM | KM12 > 100 µM | HT-29 33.3 µM | T47D 64.4 µM | M14 > 100 µM | MDA-N > 100 µM | SN12C > 100 µM | SNB-75 33.8 µM | SK-MEL-2 > 100 µM | CAKI-1 60.4 µM | HOP-62 > 100 µM | EKVX > 100 µM | TK-10 > 100 µM | HCC 2998 > 100 µM

O=C1c2cc3c(cc2NC(c2ccccc2F)C1O)OCO3 (stereo not given)
inactive: OVCAR-4 35.8 µM | OVCAR-8 28.2 µM | COLO 205 5.3 µM | OVCAR-5 22.1 µM | NCI-H23 22.6 µM | UACC-257 22.9 µM | KM12 6.65 µM | HT-29 17.6 µM | T47D > 59.6 µM | M14 10.4 µM | MDA-N 2.36 µM | SN12C 22.2 µM | SNB-75 16.3 µM | SK-MEL-2 24.3 µM | CAKI-1 25.6 µM | HOP-62 22.7 µM | EKVX 16.9 µM | TK-10 21 µM | HCC 2998 15.5 µM

CC(=O)Nc1ccc(-c2nc3cc(Cl)ccc3o2)cc1
inactive: OVCAR-4 > 50 µM | OVCAR-8 > 50 µM | COLO 205 > 50 µM | OVCAR-5 > 50 µM | NCI-H23 > 50 µM | UACC-257 > 50 µM | KM12 > 50 µM | HT-29 > 50 µM | T47D 20.4 µM | M14 > 50 µM | MDA-N > 50 µM | SN12C > 50 µM | SNB-75 32.5 µM | SK-MEL-2 > 50 µM | CAKI-1 > 50 µM | HOP-62 > 50 µM | EKVX > 50 µM | TK-10 > 50 µM | HCC 2998 40.1 µM

COc1ccc(/C=C2/C(C)=NN(c3cccc(Cl)c3)/C2=N/c2nc3ccccc3s2)cc1
inactive: OVCAR-4 37.4 µM | OVCAR-8 22.6 µM | OVCAR-5 25.1 µM | NCI-H23 16.9 µM | UACC-257 22.6 µM | KM12 30.4 µM | HT-29 19.5 µM | T47D 34 µM | M14 25.1 µM | MDA-N 21.7 µM | SNB-75 26.8 µM | SK-MEL-2 22.3 µM | CAKI-1 28.4 µM | HOP-62 20 µM | EKVX 40.2 µM | TK-10 29 µM | HCC 2998 18.3 µM

C=CCc1cccc2cc(C(=O)NC3CCCCC3)c(=N)oc12
inactive: OVCAR-4 20.9 µM | OVCAR-8 32.6 µM | COLO 205 16.7 µM | OVCAR-5 17.9 µM | NCI-H23 19.9 µM | UACC-257 25.1 µM | KM12 16.9 µM | HT-29 27.2 µM | T47D 11.4 µM | M14 18 µM | MDA-N 19.1 µM | SN12C 14.9 µM | SNB-75 15.8 µM | SK-MEL-2 3.98 µM | CAKI-1 16.8 µM | HOP-62 18.9 µM | EKVX > 100 µM | HCC 2998 16.3 µM
